Consider 26 compounds from patent US7582645B2, “Pyrimidine derivatives for treatment of hyperproliferative disorders” (Bayer Pharmaceuticals Corporation, priority 2003, dated 2009).

The term pIC50 denotes the IC50 on a negative log10 scale, so that one unit is a factor of ten. Low values mean a high IC50, high ones a low IC50.

pIC50: −log10 of the molar value. Counter-ions that a name gives are not always drawn.

The test system of one assay is HCT116 cells. Briefly: HCT116 cytotoxic activity assay (Alamar Blue, 72 h). The class given is cell-based. As to conditions: Homo sapiens, HCT-116, 72 h compound exposure, greater than 500 nM but less than or equal to 2 μM. As to the method:
Representative compounds of this invention were tested for cytotoxicity using the above-described assay procedure with the following results: […]
On the technique in general: The colour change of resazurin is a common sign of viable cells or microbes.
In turn, `Nc1nc(Nc2cccc(Oc3ccnc(N4CCC[C@H]4CO)c3)c2)cc(-c2ccccc2)n1` [Example 128, [(2S)-1-(4-{3-[(2-amino-6-phenylpyrimidin-4-yl)amino]phenoxy}pyridin-2-yl)pyrrolidin-2-yl]methanol] showed a pIC50 of 5.70 to 6.30.

Regarding `Nc1nc(Nc2ccc(Cc3ccc(F)cc3)cc2)cc(-c2ccccc2)n1` [Example 91, N^4-[4-(4-fluorobenzyl)phenyl]-6-phenylpyrimidine-2,4-diamine], the pIC50 is 5.70 to 6.30.

For `CCNc1nc(Nc2ccc(Oc3ccnc(C(F)(F)F)c3)cc2)cc(-c2cccc(OC)c2)n1` [Example 30, N^2-ethyl-6-(3-methoxy-phenyl)-N^4-[4-(2-trifluoromethyl-pyridin-4-yloxy)-phenyl]-pyrimidine-2,4-diamine], the pIC50 is 5.70 to 6.30.

Compound `CN1CCN(c2ccnc(Oc3ccc(Nc4cc(-c5ccccc5)nc(N)n4)cc3)c2)CC1` [Example 107, N4*-(4-{[4-(4-methylpiperazin-1-yl)pyridin-2-yl]oxy}phenyl)-6-phenylpyrimidine-2,4-diamine] showed a pIC50 of 5.70 to 6.30.

`NC(=O)c1cc(Oc2ccc(Nc3cc(-c4ccc(Cl)cc4)nc(N)n3)cc2)ccn1` [Example 257, 4-(4-{[2-amino-6-(4-chlorophenyl)pyrimidin-4-yl]amino}phenoxy) pyridine-2-carboxamide] had a pIC50 of 5.70 to 6.30.

Compound `NC(=O)c1cc(Oc2ccc(Nc3cc(-c4cccc(OCc5ccccc5)c4)nc(N)n3)cc2)ccn1` [Example 222, 4-[4-({2-amino-6-[3-(benzyloxy)phenyl]pyrimidin-4-yl}amino)phenoxy]pyridine-2-carboxamide] gave a pIC50 of 5.70 to 6.30.

Compound `CCN(CC)C(=O)NCc1cc(Oc2ccc(Nc3cc(-c4ccccc4)nc(N)n3)cc2)ccn1` [Example 42, N′-[(4-{4-[(2-amino-6-phenylpyrimidin-4-yl)amino]phenoxy}pyridin-2-yl)methyl]-N,N-diethylurea] showed a pIC50 of 5.70 to 6.30.

Staying with this assay, now noted: Homo sapiens, HCT-116, 72 h compound exposure, greater than 2 μM.
In turn, `COc1cc(-c2cc(Nc3ccc(Oc4ccnc(C#N)c4)cc3)nc(N)n2)ccc1NC(=O)OC(C)(C)C` [Example 178, tert-butyl {4-[2-amino-6-({4-[(2-cyanopyridin-4-yl)oxy]phenyl}amino)pyrimidin-4-yl]-2-methoxyphenyl}carbamate] gave a pIC50 of less than 5.70.

`CNC(=O)c1cc(Oc2ccc(Nc3cc(-c4ccc(F)cc4)nc(N)n3)cc2)ccn1` [Example 71, 4-(4-{[2-amino-6-(4-fluorophenyl)pyrimidin-4-yl]amino}phenoxy)-N-methylpyridine-2-carboxamide]: the pIC50 was less than 5.70.

The assay is the same for the next values; noted with them: Homo sapiens, HCT-116, 72 h compound exposure, less than or equal to 500 nM.
In turn, `Nc1nc(Nc2ccc(Oc3ccnc(/C=C/CCO)c3)cc2)cc(-c2ccccc2)n1` [Example 58, (3E)-4-(4-{4-[(2-amino-6-phenylpyrimidin-4-yl)amino]phenoxy}pyridin-2-yl)but-3-en-1-ol] gave a pIC50 of no less than 6.30.

The compound `COC[C@H]1CCCN1c1cc(Oc2ccc(Nc3cc(-c4ccccc4)nc(N)n3)cc2)ccn1` [Example 133, N4*-[4-({2-[(2R)-2-(methoxymethyl)pyrrolidin-1-yl]pyridin-4-yl}oxy)phenyl]-6-phenylpyrimidine-2,4-diamine] gave a pIC50 of no less than 6.30.

As to `COc1ccc(OC)c(-c2cc(Nc3ccc(Oc4ccnc(C#N)c4)cc3)nc(N)n2)c1` [Example 233, 4-(4-{[2-amino-6-(2,5-dimethoxyphenyl)pyrimidin-4-yl]amino}phenoxy)pyridine-2-carbonitrile], the pIC50 is no less than 6.30.

Consider `Nc1nc(Nc2ccc(Oc3ccnc(Cl)c3)cc2)cc(-c2ccccc2)n1` [Example 48, N^4-[4-(2-Chloro-pyridin-4-yloxy)-phenyl]-6-phenyl-pyrimidine-2,4 diamine], for which the pIC50 is no less than 6.30.

`Cc1cc(Oc2ccc(Nc3cc(-c4ccccc4)nc(N)n3)cc2F)ccn1` [Example 7, N^4-{3-fluoro-4-[(2-methylpyridin-4-yl)oxy]phenyl}-6-phenylpyrimidine-2,4-diamine] had a pIC50 of no less than 6.30.

In the case of `COc1cccc(-c2cc(Nc3ccc(Oc4ccnc(C(F)(F)F)c4)cc3)nc(N)n2)c1` [Example 206, 6-(3-methoxyphenyl)-N4*-(4-{[2-(trifluoromethyl)pyridin-4-yl]oxy}phenyl)pyrimidine-2,4-diamine], the pIC50 was no less than 6.30.

Turning to `Cc1ccccc1-c1cc(Nc2ccc(Oc3ccnc(C(N)=O)c3)cc2)nc(N)n1` [Example 263, 4-(4-{[2-amino-6-(2-methylphenyl)pyrimidin-4-yl]amino}phenoxy) pyridine-2-carboxamide], the pIC50 was no less than 6.30.

As for `COc1cc(-c2cc(Nc3ccc(Oc4ccnc(C(F)(F)F)c4)cc3)nc(N)n2)ccc1OS(N)(=O)=O` [Example 185, 4-{2-amino-6-[(4-{[2-(trifluoromethyl)pyridin-4-yl]oxy}phenyl)amino]pyrimidin-4-yl}-2-methoxyphenyl sulfamate], the pIC50 is no less than 6.30.

In the case of `N#Cc1cc(Oc2ccc(Nc3cc(-c4ccc(N)nc4)nc(N)n3)cc2)ccn1` [Example 183, 4-(4-{[2-amino-6-(6-aminopyridin-3-yl)pyrimidin-4-yl]amino}phenoxy)pyridine-2-carbonitrile], the negative-log IC50 (pIC50) was no less than 6.30.

For `Nc1nc(Nc2cccc(Oc3ccnc(N4CCCCC4)c3)c2)cc(-c2ccccc2)n1` [Example 119, 6-phenyl-N4*-{3-[(2-piperidin-1-ylpyridin-4-yl)oxy]phenyl}pyrimidine-2,4-diamine], the pIC50 was no less than 6.30.

Regarding `Cc1cc(Oc2ccc(Nc3cc(-c4ccoc4)nc(N)n3)cc2)ccn1` [Example 321, 6-(3-furyl)-N4*-{4-[(2-methylpyridin-4-yl)oxy]phenyl} pyrimidine-2,4-diamine], the negative-log IC50 (pIC50) was no less than 6.30.

In turn, `Nc1cccc(-c2cc(Nc3ccc(Oc4ccnc(C(F)(F)F)c4)cc3)nc(N)n2)c1` [Example 170, 6-(3-aminophenyl)-N4*-(4-{[2-(trifluoromethyl)pyridin-4-yl]oxy}phenyl) pyrimidine-2,4-diamine hydrochloride] gave a pIC50 of no less than 6.30.

`Nc1nc(Nc2ccc(Oc3ccnc(C(=O)N4CCOCC4)c3)cc2)cc(-c2ccccc2)n1` [Example 21, N^4-(4-{[2-(morpholin-4-ylcarbonyl)pyridin-4-yl]oxy}phenyl)-6-phenylpyrimidine-2,4-diamine]: the negative-log IC50 (pIC50) was no less than 6.30.

With `Nc1nc(Nc2ccc(Oc3cc(Br)ccn3)cc2)cc(-c2ccccc2)n1` [Example 63, N4*-{4-[(4-bromopyridin-2-yl)oxy]phenyl}-6-phenylpyrimidine-2,4-diamine], the pIC50 is no less than 6.30.

`Nc1nc(Nc2ccc(Oc3ccnc(C(F)(F)F)c3)cc2F)cc(-c2ccccc2)n1` [Example 67, N4*-(2-fluoro-4-{[2-(trifluoromethyl)pyridin-4-yl]oxy}phenyl)-6-phenylpyrimidine-2,4-diamine]: the negative-log IC50 (pIC50) was no less than 6.30.

`N#CCc1ccc(-c2cc(Nc3ccc(Oc4ccnc(C(F)(F)F)c4)cc3)nc(N)n2)cc1` [Example 210, (4-{2-amino-6-[(4-{[2-(trifluoromethyl)pyridin-4-yl]oxy}phenyl)amino]pyrimidin-4-yl}phenyl) acetonitrile] had a pIC50 of no less than 6.30.

`COc1cc(-c2cc(Nc3ccc(Oc4ccnc(C#N)c4)cc3)nc(N)n2)ccc1O` [Example 171, 4-(4-{[2-amino-6-(4-hydroxy-3-methoxyphenyl)pyrimidin-4-yl]amino}phenoxy)pyridine-2-carbonitrile]: the pIC50 is no less than 6.30.
